The first assay has as its system KB. In words: Growth inhibition of human KB cells by [3H]thymidine incorporation assay. The assay is classed as functional, cell-based. The conditions noted are these: Homo sapiens, KB. For orientation: Dividing cells build labelled thymidine or BrdU into new DNA.
By IC50 is commonly meant the concentration that gives 50% inhibition. A high value points to lower potency. The compound `CC[C@H](C)[C@H](NC(=O)[C@H]1CCCCN1C)C(=O)N(COC)[C@H](C[C@@H](OC(C)=O)c1nc(C(=O)N[C@@H](Cc2ccc(O)cc2)C[C@H](C)C(=O)O)cs1)C(C)C` came in with an IC50 of 9 nM. This lies in the single-digit nanomolar range. `CC[C@H](C)[C@H](NC(=O)[C@H]1CCCCN1C)C(=O)N(COCCO)[C@H](C[C@@H](OC(C)=O)c1nc(C(=O)N[C@@H](Cc2ccc(O)cc2)C[C@H](C)C(=O)O)cs1)C(C)C` yielded an IC50 of 18 nM. `CCCOCN(C(=O)[C@@H](NC(=O)[C@H]1CCCCN1C)[C@@H](C)CC)[C@H](C[C@@H](OC(C)=O)c1nc(C(=O)N[C@@H](Cc2ccc(O)cc2)C[C@H](C)C(=O)O)cs1)C(C)C` showed an IC50 of 1.4 nM. The same measure, in the same setting: with `CCCCCSCN(C(=O)[C@@H](NC(=O)[C@H]1CCCCN1C)[C@@H](C)CC)[C@H](C[C@@H](OC(C)=O)c1nc(C(=O)N[C@@H](Cc2ccc(O)cc2)C[C@H](C)C(=O)O)cs1)C(C)C` the figure was 0.8 nM. Still for that read-out and setting: for `CCCSCN(C(=O)[C@@H](NC(=O)[C@H]1CCCCN1C)[C@@H](C)CC)[C@H](C[C@@H](OC(C)=O)c1nc(C(=O)N[C@@H](Cc2ccc(O)cc2)C[C@H](C)C(=O)O)cs1)C(C)C` the value was 1.4 nM.

`CCCCSCN(C(=O)[C@@H](NC(=O)[C@H]1CCCCN1C)[C@@H](C)CC)[C@H](C[C@@H](OC(C)=O)c1nc(C(=O)N[C@@H](Cc2ccc(O)cc2)C[C@H](C)C(=O)O)cs1)C(C)C` had an IC50 of 0.7 nM. Take `CC[C@H](C)[C@H](NC(=O)[C@H]1CCCCN1C)C(=O)N(CSCCO)[C@H](C[C@@H](OC(C)=O)c1nc(C(=O)N[C@@H](Cc2ccc(O)cc2)C[C@H](C)C(=O)O)cs1)C(C)C`: the IC50 was found to be 26 nM.

`CCCC(=O)OCN(C(=O)[C@@H](NC(=O)[C@H]1CCCCN1C)[C@@H](C)CC)[C@H](C[C@@H](OC(C)=O)c1nc(C(=O)N[C@@H](Cc2ccc(O)cc2)C[C@H](C)C(=O)O)cs1)C(C)C` [TUBULYSIN B] came in with an IC50 of 2 nM. Compound `CC[C@H](C)[C@H](NC(=O)[C@H]1CCCCN1C)C(=O)N(CNC(=O)CC(C)C)[C@H](C[C@@H](OC(C)=O)c1nc(C(=O)N[C@@H](Cc2ccc(O)cc2)C[C@H](C)C(=O)O)cs1)C(C)C` gave an IC50 of 8 nM. Same read-out and setting: with `CCSCN(C(=O)[C@@H](NC(=O)[C@H]1CCCCN1C)[C@@H](C)CC)[C@H](C[C@@H](OC(C)=O)c1nc(C(=O)N[C@@H](Cc2ccc(O)cc2)C[C@H](C)C(=O)O)cs1)C(C)C` the figure was 2 nM; with `CC[C@H](C)[C@H](NC(=O)[C@H]1CCCCN1C)C(=O)N(CSCCS)[C@H](C[C@@H](OC(C)=O)c1nc(C(=O)N[C@@H](Cc2ccc(O)cc2)C[C@H](C)C(=O)O)cs1)C(C)C`, 26 nM. Compound `CC[C@H](C)[C@H](NC(=O)[C@H]1CCCCN1C)C(=O)N(COCCC(C)C)[C@H](C[C@@H](OC(C)=O)c1nc(C(=O)N[C@@H](Cc2ccc(O)cc2)C[C@H](C)C(=O)O)cs1)C(C)C` yielded an IC50 of 12 nM. Against the preceding compound, the IC50 is about 2.2-fold lower. Still for that read-out and setting: with `C=CCCN(C(=O)[C@@H](NC(=O)[C@H]1CCCCN1C)[C@@H](C)CC)[C@H](C[C@@H](OC(C)=O)c1nc(C(=O)N[C@@H](Cc2ccc(O)cc2)C[C@H](C)C(=O)O)cs1)C(C)C` the figure was 1.3 nM.

The assay is the same for the next values; noted with them: kb.
As for `CC[C@@H](C)[C@H](NC(=O)[C@H]1CCCCN1C)C(=O)N(COC(=O)CC(C)C)[C@H](C[C@@H](OC(C)=O)c1nc(C(=O)N[C@@H](Cc2ccc(O)cc2)C[C@H](C)C(=O)O)cs1)C(C)C` [TUBULYSIN A], the IC50 was 1 nM.

These data come from ChEMBL document CHEMBL1909574, “Acid mediated formation of an N-acyliminium ion from tubulysins: a new methodology for the synthesis of natural tubulysins and their analogs” (Bioorg Med Chem Lett, 2011).
